Assay results from article PMC3215401 (Biosensors & bioelectronics, 2011).

Key:
Type in all cases: cell-based, human
[1] = molecular target: PPARγ LBD, sensor 100PPARγ383 (UniProt P37231+P9WHJ3, V318L)
[2] = molecular target: PPARγ LBD, sensor 110PPARγ393 (UniProt P37231+P9WHJ3, V318L)
[3] = molecular target: PPARγ LBD, sensor 110PPARγ383 (UniProt P37231+P9WHJ3, V318L)
[4] = molecular target: PPARγ LBD, sensor 110PPARγ_3GS_403 (UniProt P37231+P9WHJ3, V318L)
[5] = molecular target: PPARγ LBD, sensor 94_1GS_PPARγ_1GS_403 (UniProt P37231+P9WHJ3, V318L)
[6] = molecular target: PPARγ LBD, sensor 94PPARγ403 (UniProt P37231+P9WHJ3, V318L)
[7] = molecular target: PPARγ LBD, sensor 110PPARγ_3GS_383 (UniProt P37231+P9WHJ3, V318L)

SMILES | effect on cell growth [1] | effect on cell growth [2] | EC50 [3] | effect on cell growth [3] | EC50 [4] | effect on cell growth [5] | effect on cell growth [6] | IC50 ([3]; read-out: IC50 for antagonism) | EC50 [5] | effect on cell growth [7]
CCCCC/C=C/C=C1/C(=O)C=C[C@@H]1C/C=C\CCCC(=O)O [15D-PGJ2, 15-deoxy-Δ^12,14-Prostaglandin J2] | significant response | almost no effect | could not be calculated | didn't induce a significant cell growth signal | could not be calculated | strongest observed response |  |  |  | 
C[C@]12CC[C@@H]3c4ccc(O)cc4CC[C@H]3[C@@H]1CC[C@@H]2O [E2, 17β-estradiol] |  |  |  | no significant effect |  |  |  |  |  | 
O=C(Nc1ccccc1)c1cc([N+](=O)[O-])ccc1Cl [GW9662] | inhibitory effect | increased cell growth substantially |  | inhibited cell growth | 1100 ± 200 nM |  | strong positive responses | 1800 ± 1200 nM | 500 ± 100 nM | weak positive response
